# Patent US7608246B2 (The Brigham and Women's Hospital, Inc., priority 2005, dated 2009)
# Key:
# [1] = test system: CD1b-restricted T cell line LDN5; experiment: CD1b restricted T cell response to mycobacterial lipid antigens with or without apoE; format: cell-based; details: versus without apoE
# Source text: D) Enhancement of a CD1b dependent T cell response against foreign antigens.
# [2] = test system: αGC reactive T cells; experiment: ApoE enhancement of GGC reactivity: DC pulsed, co-cultured with αGC reactive T cells, IFNγ ELISA; format: cell-based, human; details: for increase of antigenic potency of GGC: compared to freshly sonicated free GGC or GGC with HDL, LDL or albumin
# Procedure: Sonicated GGC was incubated with the indicated components in serum-free media with 4 mg/ml bovine serum albumin (BSA) as a carrier for 1-2 hours (or freshly sonicated) before pulsing DC and co-culturing with αGC reactive T cells in media supplemented with 2% human serum. IFNγ was measured in 16-24 hours by ELISA.
# C) Dose-dependence of apoE.
# [3] = test system: LDL-R; experiment: ApoB competition at the LDL-R: DC pulsed with free GGC or apoE-GGC, activation of αGC reactive T cells; format: cell-based, human; details: increasing amounts of apoB
# Procedure: C) Free GGC or apoE-GGC was pulsed onto DC in the presence of increasing concentrations of apoB, and the subsequent activation of αGC reactive T cells was measured. There was no effect of apoB on PHA-stimulation of T cells. All data are representative of at least three experiments.
# In a second approach, advantage was taken of the fact that apoB, the primary component of LDL, also binds to the LDL-R and can serve as a competitive ligand, while not binding LRP (Beisiegel et al., Nature 341:162-4 (1989)). […] As controls, increasing amounts of apoB had no effect on the dose response to free GGC (FIG. 3C) or on the PHA induced T cell response.
# [4] = test system: CD1d-reactive T cells; experiment: T cell reactivity to GGC in apoE-depleted human serum; format: cell-based; details: compared to normal human serum
# Source text: Data are means of triplicate samples +/−SEM and are representative of four independent experiments using two separate apoE depletion columns and varying doses of antigen. Statistics reflect all doses in all experiments: *p<0.001, **p<0.001, ***p<0.01.
# [5] = test system: TT-reactive clone; format: cell-based
# [6] = test system: αGC-reactive NKT cells; experiment: Response to intravenous GGC in LDL-R deficient mice; format: in vivo; details: 200 ng GGC or 1.5 μg anti-CD3
# Procedure: D) LDLR−/− and matched wild type controls were challenged intravenously with 200 ng GGC, 1.5 μg anti-CD3 or vehicle as described in FIG. 1D. Shown are results from spleen, with similar results in the liver. Represents two separate experiments with 10 LDLR−/− and 10 wild type mice.
# Finally, the response to GGC in LDL-R deficient mice was examined. […] Thus, it was concluded that the LDL-R plays a major role in the uptake of apoE-lipid antigen complexes and presentation by CD1.
# [7] = target: apoE (Homo sapiens, UniProt P02649); experiment: ApoE-GGC binding, heparin affinity column
# apoE, sequence (P02649 19-317): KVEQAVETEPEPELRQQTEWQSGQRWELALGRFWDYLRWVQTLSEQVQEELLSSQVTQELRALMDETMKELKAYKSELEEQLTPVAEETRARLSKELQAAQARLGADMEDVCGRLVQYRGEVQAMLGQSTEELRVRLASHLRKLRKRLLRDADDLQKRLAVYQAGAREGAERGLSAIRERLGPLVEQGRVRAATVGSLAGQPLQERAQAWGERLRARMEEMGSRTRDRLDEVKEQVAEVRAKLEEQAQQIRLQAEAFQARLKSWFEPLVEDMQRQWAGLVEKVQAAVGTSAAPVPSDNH
# Procedure: A) ApoE-GGC binding. […] Fractions were assayed for antigenic activity as in FIG. 1. There was no difference in non-specific loss to the column. Data are representative of at least six separate experiments.
# [8] = test system: DC; experiment: Rapidity of lipid antigen uptake: DC pulsed for varying times, then T cell stimulation; format: cell-based, human; details: free lipid in media alone
# Procedure: A) ApoE enhances the efficiency of presentation of GGC. […] GGC (solid squares and striped bars) or sonicated free GGC (open triangles and open bars) was incubated with DC in serum-free media with 4 mg/ml BSA for the indicated times before washing and testing the ability to stimulate T cells as described in FIGS. 1 and 2. Upper panel: Dose response curve of GGC for 2 minute pulse. Lower panel: Various pulse times are shown for 50 ng/ml GGC.
# To determine the rapidity and efficiency of lipid uptake into DC, free lipid antigen or apoE-bound lipid antigen was used to pulse DC for varying times before washing the cells and assaying their subsequent ability to present antigen to T cells.
# [9] = test system: αGC-reactive NKT cells; experiment: Response to intravenous GGC in apoE-deficient mice (intracellular IFNγ of CD1d tetramer positive cells); format: in vivo; details: 200 ng GGC or 1.5 μg anti-CD3
# Source text: Spleens and livers were harvested and TcRβ-positive, CD19-negative, CD1d tetramer positive cells analyzed for intracellular IFNγ production by flow cytometry.
# This was not due to a nonspecific deficit of T cell reactivity, since intravenous administration of anti-CD3 antibodies activated αGC reactive T cells similarly in both apoE-deficient mice and controls. Thus, apoE plays a crucial role in the in vivo presentation of an exogenous lipid antigen.
# [10] = test system: CD1c; experiment: CD1c presented antigen T cell stimulation with or without apoE; format: cell-based; details: versus without apoE
substance,measurement,setting,value
Glucose monomycolate,CD1b restricted T cell activation when complexed with apoE,[1],more efficient
VLDL-derived apoE: apoE derived from VLDL,increase of antigenic potency of GGC,[2],~50 fold
apolipoprotein B [apoB],effect on antigen presentation by DC pulsed with apoE-GGC,[3],dose-dependent diminution
same,effect on dose response to free GGC or PHA induced T cell response,[3],no effect
apolipoprotein E [apoE],"effect on control T cell stimulators (CD3, PHA or PMA/ionomycin)",[2]; increasing the concentration of apoE,no effect
same,capacity of serum incubated with GGC to stimulate T cells,[4],recovered
same,effect on MHC class II restricted response to tetanus toxoid,[5],no effect
galactosyl(α1-2)galactosyl ceramide [GGC],response in LDL-R knockouts versus wild type controls,[6],greatly diminished response
same,binding of GGC to apoE,[7]; 10 minute incubation at room temperature,all detectable lipid antigen remained bound to apoE
same,GGC bound to apoE,[7]; in the presence of a 500-fold excess of albumin,greater than 95%
same,time required to achieve maximal stimulation,[8],4 to 6 h
same,maximal stimulation relative to that achieved in 2 minutes with apoE,[8]; 4-6 hours,48% (+/−11%)
same,response in apoE-deficient mice versus wild type controls,[9],drastically reduced
manosyl-phosphomycoketide,T cell stimulation by CD1c presented antigen complexed with apoE,[10],significantly more efficient
mycolic acid,CD1b restricted T cell activation when complexed with apoE,[1],more efficient
recombinant apoE: recombinant apoE,increase of antigenic potency of GGC,[2],~50 fold
